Measurements taken from ChEMBL document CHEMBL5390234 (Bioorg Med Chem Lett, 2023).
Values after ≈ are worked out from the molar mass of the structure shown.

What was measured:
[1] = Lipophilicity, logD of compound at pH 7.4; assay type: physicochemical; conditions: buffer
[2] = Apparent permeability of compound across apical to basolateral in human Caco-2 cells at 10 uM; assay type: ADME, cell-based
[3] = Volume of distribution at steady state in mouse; assay type: ADME, organism-based; conditions: in vivo, read-out: Vdss
[4] = Oral bioavailability in mouse at 1 mg/kg or 0.5 mg/kg, iv; assay type: ADME, organism-based; conditions: in vivo
[5] = Solubility of the compound in aqueous phosphate buffer at pH 7.4 incubated for 24 hrs; assay type: physicochemical
[6] = Oral bioavailability in mouse at 30 mg/kg; assay type: ADME, organism-based; conditions: in vivo
[7] = AUC (0 to t) in mouse plasma at 1 mg/kg, po; assay type: ADME, organism-based; set-up: dose 1 mg/kg, route po
[8] = AUC (0 to t) in mouse plasma at 30 mg/kg, po; assay type: ADME, organism-based; set-up: dose 30 mg/kg, route po

SMILES | logD [1] | Papp A→B at 10 µM [2] | Vd [3] | further results
CCNc1nc(N)nc2nc(-c3ccc[nH]c3=O)ccc12 | 0.8 | – | – | –
CC1(Nc2nc(N)nc3nc(-c4cc[nH]n4)ccc23)CC1 | – | 4.2 ×10⁻⁶ cm/s | 7.8 L/kg | bioavailability [4]: 56%; solubility at 24 h [5]: 910 µM (≈ 256 µg/mL); bioavailability [6]: 70%; AUC(0-t) [7]: 0.2 µM·h; AUC(0-t) [8]: 7.5 µM·h
CCNc1nc(N)nc2cc(-n3cccn3)cnc12 | 2.1 | – | – | –
CCNc1cc(N)nc2cc(-n3cccn3)ccc12 | 1.5 | – | – | –
Nc1cc(NCCn2cccn2)c2ccccc2n1 | 0.5 | – | – | –
Nc1nc(NCCn2cccn2)c2ccc(-c3cc[nH]n3)nc2n1 | 1.4 | – | – | –
CC1(Nc2nc(N)nc3cc(-c4cc[nH]n4)ccc23)CC1 | – | 9 ×10⁻⁶ cm/s | 4.7 L/kg | bioavailability [4]: 25%; solubility at 24 h [5]: > 1000 µM
c1cnn(CCNc2ccnc3cc(-n4cccn4)ccc23)c1 | 1.8 | – | – | –
CCNc1nc(N)nc2nc(-n3cccn3)ccc12 | 2 | – | – | –
Nc1cc(NCCn2cccn2)c2ccc(-n3cccn3)cc2n1 | 1.7 | 2.3 ×10⁻⁶ cm/s | 3.1 L/kg | bioavailability [4]: 1.1%
CCNc1nc(N)nc2nc(-c3cc[nH]n3)ccc12 | 1.4 | – | – | –
CCNc1nc(N)nc2cc(-c3cc[nH]n3)ccc12 | 1.8 | – | – | –
Nc1nc(NC2CC2)c2ccc(-c3cc[nH]n3)nc2n1 | – | 3.7 ×10⁻⁶ cm/s | 13 L/kg | bioavailability [4]: 7.5%; solubility at 24 h [5]: > 1000 µM
CCNc1nc(N)nc2cc(-n3cccn3)ccc12 | 1.8 | – | – | –
CCN(Cc1nc2c(N)nc3cc(-c4cc[nH]n4)ccc3c2[nH]1)C(C)=O [BMS-986299] | 1.8 | 0.6 ×10⁻⁶ cm/s | 0.8 L/kg | –
